From patent publication US9084779B2, “Conjugates of nitroimidazoles and their use as chemotherapeutic agents” (The Johns Hopkins University, priority 2011, dated 2015)
Converted amounts (≈) assume the structure as drawn.

Experiments:
[1] = Determination of water solubility by UV absorbance of a saturated solution; format: physicochemical; settings: thermodynamic from solid; water, saturated solution, sonicated at 25° C., stirred at room temperature 1.0 h, filtered
Description: The aqueous solubility of all eight compounds was assessed by using a technique involving measurement of their UV absorbance^29.
Determination of Water Solubility of Compounds 7a-d and 10a-d. A saturated solution was prepared by addition of a test compound (7a-d and 10a-d; ca. 1.00 mg) to water (1.00 mL), which was sonicated at 25° C. for 5.0 min and stirring at room temperature for an additional 1.0 h. After filtration with Millipore filters (0.45-μm-pore-size polyvinylidene fluoride), the supernatant was analyzed by UV spectroscopy with concentration determined from absorbance, standardized against calibration data. Standard curves for each compound were obtained by plotting absorbance against concentration. The concentration range of the standard solutions was 1.0-10 μg/mL. For all standards, their curves were linear with γ>0.996.

[2] = system: Hep3B human hepatocellular carcinoma cells; experiment: MTS tetrazolium cell proliferation assay, 72-h exposure; format: cell-based; settings: normoxic (21% O2), read-out: IC50 Normoxic (N)
From the text: Anti-proliferative assay. The human hepatocellular carcinoma cell line Hep3B was purchased from American Type culture Collection (ATCC, Manassas, Va.). Dulbecco's Modified Eagle Medium (DMEM) and penicillin/streptomycin (P/S) were obtained from GIBCO Invitrogen. Fetal Bovine serum (FBS) was obtained from Thermo Scientific Hyclone. Dimethyl sulfoxide (DMSO-Hybri-Max) was purchased from Sigma-Aldrich Co. and the CellTiter 96 AQueous One Solution Cell Proliferation Assay (MTS) was acquired from Promega Corp. Hep3B cells were maintained in DMEM supplemented with 10% FBS and 1× P/S solution. Cultures were incubated at 37° C. in a 5% CO2 atmosphere with 99% humidity. Stock solutions of test compounds were prepared in DMSO for use in the cell culture viability assays.
MTS tetrazolium cell proliferation assay. The viability of Hep3B cells exposed to the synthesized compounds was determined by the MTS assay. Briefly, Hep3B cells were plated in 96-well plates at a density of 3.0×10^3 cells/well and incubated for 24-h before treatment. At the initiation of treatment, the growth media was replaced with 200 μL of media containing increasing concentrations of the test compounds in triplicate wells. The final DMSO concentration in the media was 1.0% including the media added to the control wells minus the test compound. After a 72-hour incubation, 40 μL of MTS solution was added to each well and the plates were incubated for an additional 3.0 hours. The plates were then read at 490 nm on a Biotek Instruments PowerWave 200 microplate reader. For each experiment the percent growth inhibition relative to the control (no drug addition) was calculated and a dose inhibition curve was generated. The concentration of drug required to inhibit cell growth by 50% (IC50) compared to the control cells was then determined by non-linear regression using PSI-Plot software (Poly Software International).
Antiproliferative activity. The anti-cancer activities of the parent compounds 3 and 8 and the conjugated compounds 7a-d and 10a-d were tested against Hep3B human hepatocellular carcinoma cells in culture.

[3] = system: Hep3B human hepatocellular carcinoma cells; experiment: Hypoxia targeting assay, 5-h exposure then 5 days growth, MTS; format: cell-based; settings: for IC50: Homo sapiens
Description: Hypoxia targeting assay. Hep3B cells, plated in 96-well plates at a density of 3.0×10^3 cells/well, were incubated overnight and then treated with the test compounds for 5.0 hours at under hypoxic (1% O2) or normoxic (21% O2) conditions. Exposure of cells to hypoxia was carried out in a PROOX C-Chamber with O2 and CO2 levels modulated by a PROOX Model C21 Controller (BioSpherix). At the end of the treatment period, the wells were washed with phosphate buffered saline (PBS) and fresh compound-free media was added. The cells were cultured for an additional 5 days under normoxic conditions and then assayed for cell proliferation using the MTS assay.
Hypoxia targeting. Nitroimidazoles are converted to reactive compounds in hypoxic cells. Therefore it is of importance to compare the antiproliferative activities of the nitroimidazole conjugated compounds against Hep3B cells under normoxic and hypoxic conditions. In these experiments, Hep3B cells in culture were treated with each of the conjugated compounds 7c-d, 10c-d, or the parent compounds 3 or 8 for a 5.0-hour period under normoxic (21% O2) or hypoxic (1.0% O2) conditions. After treatment, the cells were returned to normal conditions and assayed for proliferation after 5 days of additional growth. […] The ratio between the IC50 values for each drug under normoxic versus hypoxic culture conditions was computed and used as a measure of the relative increase in potency.

[4] = system: 786-0 human renal adenocarcinoma cells; experiment: MTT cell viability assay, 3 days; format: cell-based; settings: Homo sapiens, 786-0, 72 h, normoxic conditions, 1% DMSO
Description: (§1) Additional cell culture, drug treatment and cell viability assays. HT29 human colorectal carcinoma cells, 786-0 human renal adenocarcinoma cells and Hep3B human hepatocellular carcinoma cells were obtained from ATCC and maintained in culture according to their recommendations. […] After the treatment period viability of the cells was determined with the MTT cell viability assay and dose response curves were generated using the calculated values of the percentage viable cells relative to the vehicle control.

[5] = system: HT29 human colorectal carcinoma cells; experiment: MTT cell viability assay, 3 days; format: cell-based; settings: Homo sapiens, HT-29, 72 h, normoxic conditions, 1% DMSO
Description: as §1

[6] = system: Hep3B human hepatocellular carcinoma cells; experiment: MTT cell viability assay, 3 days; format: cell-based; settings: Homo sapiens, Hep3B, 72 h, normoxic conditions, 1% DMSO
Description: as §1

- solubility at 1 h [1]: 13.2 µg/mL (≈ 21.5 µM)
- IC50 [2]: 12.6 ± 4.9 µM
- IC50 ([3]; hypoxic (1.0% O2), then 5 days normoxic growth, read-out: IC50 Hypoxic (H)): 53.2 ± 8 µM
- IC50 ([3]; normoxic (21% O2), then 5 days growth, read-out: IC50 Normoxic (N)): 60.8 ± 9.4 µM
- IC50 [4]: 10 to 14 µM
- IC50 [5]: 4 to 6 µM
- IC50 [6]: 4 µM
SMILES: COc1ccc(C[C@H](C)[C@H](C)Cc2ccc(OC)c(OCCOCCOCCOCCn3ccnc3[N+](=O)[O-])c2)cc1OC (racemic) [Compound 7d, (±)-(2R,3S)-4-(3,4-Dimethoxyphenyl)-1-[4-methoxy-3-[12-(2-nitro-1H-imidazol-1-yl)-1,4,7,10-tetraoxadodecanyl]phenyl]-2,3-dimethylbutane]
- Ratio IC50 (N)/IC50 (H) ([3]; normoxic versus hypoxic): 1.14
